From patent US9096639B2, “17-hydroxy-17-pentafluorethyl-estra-4,9(10)-dien-11-acyloxyalkylene phenyl derivatives, methods for the production thereof and use thereof for treating diseases” (Bayer Intellectual Property GmbH, priority 2009, dated 2015) come the findings set out here.

Molecules are shown by their SMILES.

Data set [1] concerns the target T1, human progesterone receptor A (Homo sapiens, UniProt P06401).
T1 construct: expressed in transfected cells; host or cells: SK-N-MC human neuroblastoma cells, stably transfected with pRChPR-A-neo and pMMTV-LUC
T1 sequence (P06401 1-769 isoform P06401-2): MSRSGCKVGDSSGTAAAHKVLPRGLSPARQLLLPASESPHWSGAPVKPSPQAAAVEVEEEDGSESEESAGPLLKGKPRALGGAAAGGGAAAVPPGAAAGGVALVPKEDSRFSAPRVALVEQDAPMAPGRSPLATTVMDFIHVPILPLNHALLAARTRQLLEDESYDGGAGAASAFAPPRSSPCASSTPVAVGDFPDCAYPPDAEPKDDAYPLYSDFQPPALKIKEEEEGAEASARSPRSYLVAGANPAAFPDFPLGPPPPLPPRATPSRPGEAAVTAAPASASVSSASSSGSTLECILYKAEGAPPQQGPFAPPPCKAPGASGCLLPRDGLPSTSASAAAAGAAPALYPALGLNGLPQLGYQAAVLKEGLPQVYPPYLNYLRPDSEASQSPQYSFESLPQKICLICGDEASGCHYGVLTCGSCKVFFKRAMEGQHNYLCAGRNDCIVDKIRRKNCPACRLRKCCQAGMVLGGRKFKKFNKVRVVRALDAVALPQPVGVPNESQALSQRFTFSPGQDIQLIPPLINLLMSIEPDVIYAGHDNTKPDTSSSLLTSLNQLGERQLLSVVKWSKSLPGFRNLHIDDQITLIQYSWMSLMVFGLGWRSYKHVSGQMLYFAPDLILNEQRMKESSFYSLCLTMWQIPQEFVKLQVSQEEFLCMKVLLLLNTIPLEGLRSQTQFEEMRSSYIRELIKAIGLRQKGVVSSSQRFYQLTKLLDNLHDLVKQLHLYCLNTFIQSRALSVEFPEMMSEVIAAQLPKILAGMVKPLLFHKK
The data set can be described thus: Progesterone receptor transactivation test in stably transfected SK-N-MC cells (PR-A, MMTV-LUC reporter). It counts as cell-based. The note with it: 0.1 nmol/l promegestone, 24 hours, read-out: PR-A IC50 (antagonistic potency). Here is the method:
(§1) Progesterone receptor-antagonistic action in stable transfectants of human neuroblastoma cells (SK-N-MC cells) with the human progesterone A or progesterone B receptor and an MN-LUC reporter construct SK-N-MC cells (human neuroblastoma cells) which have been stably transfected with plasmids expressing the human progesterone receptor B (pRChPR-B-neo) or the human progesterone receptor A (pRChPR-A-neo) and a reporter construct (pMMTV-LUC) were incubated for 24 hours either in the absence (negative control) or in the presence of ascending amounts of the particular test compound (0.01 nmol/l, 0.1 nmol/l, 1 […], 100 nmol/l and […]), in order to determine the agonistic efficacy. As a positive control of the reporter gene induction, the cells were treated with the synthetic gestagen promegestone (0.01 nmol/l, 0.1 nmol/l, 1 nmol/l, 10 nmol/l, 100 nmol/l and […]). To determine the antagonistic activity, the cells were treated with 0.1 nmol/l promegestone and additionally with ascending amounts of the particular test compound (0.01 nmol/l, 0.1 nmol/l, 1 nmol/l, 10 nmol/l, 100 nmol/l and […]). The activity of the reporter gene LUC (LUC=luciferase) was determined in the cell lysates and measured as RLU (relative light units). All measurements are reported as % efficacy and as EC50 and IC50 concentrations.

A short description of data set [2]: Determination of stability in human plasma. It is filed as in vitro ADME. On the procedure:
(§2) A stock solution of 1.0 mg of the substance to be tested in a 9:1 mixture of acetonitrile and dimethyl sulphoxide was prepared. 20 μl of this stock solution were added at 37° C. to 1 ml of human plasma or rat plasma. To determine the content, 100 μl samples were each taken at different times. The enzyme activity was blocked by adding 300 μl of acetonitrile, the samples were centrifuged at 5000 rpm over 10 minutes and, in the supernatant, the content of ester and hydrolysis products (8S,11R,13S,14S,17S)-17-hydroxy-11-[4-((R)-1-hydroxyethyl)phenyl]-1 3-methyl-17-pentafluoroethyl-1,2,6,7,8,11,12,13,14,15,16,17-dodecahydrocyclopenta[a]phenanthren-3-one and/or (8S,11R,13S,14S,17S)-17-hydroxy-11-[4-((S)-1-hydroxyethyl)phenyl]-13-methyl-17-pentafluoroethyl-1,2,6,7,8,11,12,13,14,15,16,17-dodecahydrocyclopenta[a]phenanthrene-3-one was determined by HPLC. The concentration-time curves were used to calculate the degradation kinetics. The stability of the substance tested was reported as the half-life.

Data set [3] in a line: Determination of hydrolytic stability (5:1 dioxane/buffer, HPLC). It is filed as physicochemical. The following applies: 5:1 dioxane/buffer solution, test ended after 24 or 192 hours, read-out: Hydrolytic stability t1/2. On the procedure: The ester to be analyzed was dissolved in each case in a 5:1 mixture of dioxane and buffer solution (pH 1.2, pH 5.0 or pH 8.0) at 23° C. At different times, the content of ester and hydrolysis products (8S,11R,13S,14S,1 7S)-17-hydroxy-11-[4-((R)-1-hydroxyethyl)phenyl]-13-methyl-17-pentafluoroethyl-1,2,6,7,8,11,12,13,14,15,16,17-dodecahydrocyclopenta[a]phenanthren-3-one and/or (8S,11R,13S,14S,17S)-17-hydroxy-11-[4-((S)-1-hydroxyethyl)phenyl]-1 3-methyl-17-pentafluoroethyl-1,2,6,7,8,11,12,13,14,15,16,17-dodecahydrocyclopenta[a]phenanthren-3-one was determined by HPLC. The test was ended after 24 hours or 192 hours.

The target of data set [4] is T2, human progesterone receptor B (Homo sapiens, UniProt P06401).
T2 construct: expressed in transfected cells; host or cells: SK-N-MC human neuroblastoma cells, stably transfected with pRChPR-B-neo and pMMTV-LUC
T2 sequence (P06401 1-933): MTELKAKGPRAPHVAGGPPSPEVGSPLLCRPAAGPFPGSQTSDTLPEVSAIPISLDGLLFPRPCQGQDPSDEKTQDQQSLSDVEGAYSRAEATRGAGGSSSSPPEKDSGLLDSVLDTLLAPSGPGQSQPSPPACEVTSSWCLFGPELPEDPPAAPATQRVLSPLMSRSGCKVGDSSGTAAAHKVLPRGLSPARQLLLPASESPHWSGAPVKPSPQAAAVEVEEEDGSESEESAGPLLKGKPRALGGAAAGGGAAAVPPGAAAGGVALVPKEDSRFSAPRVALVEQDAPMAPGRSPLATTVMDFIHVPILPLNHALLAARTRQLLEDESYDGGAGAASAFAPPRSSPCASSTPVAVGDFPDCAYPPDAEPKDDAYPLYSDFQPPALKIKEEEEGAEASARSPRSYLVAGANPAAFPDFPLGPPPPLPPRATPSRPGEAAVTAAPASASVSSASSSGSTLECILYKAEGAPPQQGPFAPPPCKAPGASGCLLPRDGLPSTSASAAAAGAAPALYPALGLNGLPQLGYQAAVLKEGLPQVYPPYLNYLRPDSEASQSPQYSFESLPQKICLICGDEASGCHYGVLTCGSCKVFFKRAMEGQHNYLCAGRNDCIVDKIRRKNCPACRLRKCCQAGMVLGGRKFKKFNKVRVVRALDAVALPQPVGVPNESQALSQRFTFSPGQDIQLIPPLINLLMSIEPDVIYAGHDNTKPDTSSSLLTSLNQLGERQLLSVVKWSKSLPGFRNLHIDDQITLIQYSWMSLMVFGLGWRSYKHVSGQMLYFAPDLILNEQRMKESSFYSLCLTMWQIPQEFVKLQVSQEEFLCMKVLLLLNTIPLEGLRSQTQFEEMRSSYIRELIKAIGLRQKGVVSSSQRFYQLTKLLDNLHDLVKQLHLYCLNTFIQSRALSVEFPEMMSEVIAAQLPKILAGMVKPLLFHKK
The data set can be described thus: Progesterone receptor transactivation test in stably transfected SK-N-MC cells (PR-B, MMTV-LUC reporter). It is filed as cell-based. The following applies: 0.1 nmol/l promegestone, 24 hours, read-out: PR-B IC50 (antagonistic potency). On the procedure: as §1

The nature of data set [5]: Determination of stability in rat plasma. It counts as in vitro ADME. The following applies: 37° C., read-out: Stability t1/2 in rat plasma (converted). Here is the method:
as §2

A word on the IC50: it is the midpoint of a concentration-inhibition curve. As to `C=CCOC(=O)N[C@H](C(=O)OC(C)c1ccc([C@H]2C[C@@]3(C)C(CC[C@@]3(O)C(F)(F)C(F)(F)F)C3CCC4=CC(=O)CCC4=C32)cc1)C(C)C` (mixture of isomers) [Example 16, (S)-2-Allyloxycarbonylamino-3-methylbutyric acid (RS)-1-[4-((8S,11R,13S,14S,17S)-17-hydroxy-1 3-methyl-3-oxo-1 7-pentafluoroethyl-2,3,6,7,8,11,12,13,14,15,16,17-dodecahydro-1H-cyclopenta[a]phenanthren-11-yl)phenyl]ethyl ester], the IC50 is 0.11 nM in data set [1] and 0.71 nM in data set [4]. Besides, the half-life in data set [2] (37° C., read-out: Stability t1/2 in human plasma (converted)) is over 1000 h; in data set [2] (method of working example 19, summary statement in description, read-out: half-life in human plasma), over 100 h; in data set [3] (pH = 1.2, 23° C.), over 192 h; in data set [3] (pH = 8.0, 23° C.) it was over 192 h; in data set [5] it was 33.2 h.
